Where two headings read alike, the source gives them in different places.
How the values were obtained:
[1] = biological target: CXCR4 (Homo sapiens, UniProt P61073); test: Intracellular CXCL-12-induced calcium mobilization assay (FLIPR), U87.CXCR4 cells; format: cell-based; design: expressed in transfected cells; host or cells: U87 (U87.CXCR4); conditions: CXCL-12 25-50 ng/ml, read-out: IC50 CXCL-12 Ca2+ flux U87.CXCR4+
Description: Intracellular calcium mobilization induced by chemokines or chemokine-derived peptides were evaluated using a calcium responsive fluorescent probe and a FLIPR system. The CXCR-4 transfected U87 cell line (U87.CXCR4) cells were seeded in gelatine-coated black-wall 96-well plates at 20,000 cells per well and incubated for 12 hours. Cells were then loaded with the fluorescent calcium probe Fluo-2 acetoxymethyl at 4 μM final concentration in assay buffer (Hanks' balanced salt solution with 20 mM HEPES buffer and 0.2% bovine serum albumin, pH 7.4) for 45 min at 37° C. The intracellular calcium mobilization induced by the CXCL-12 (25-50 ng/ml) was then measured at 37° C. by monitoring the fluorescence as a function of time in all the wells simultaneously using a fluorometric imaging plate reader (FLIPR Tetra, Molecular Devices).

[2] = biological target: T1, BTK (Bruton tyrosine kinase) (Homo sapiens, UniProt Q06187); test: BTK screening assay (33PanQinase Activity Assay, radiometric); format: biochemical
T1 construct: GST or His (the text leaves open which); purchased Reaction Biology Europe GmbH Lot 012,11; host or cells: Sf9 insect cells or E. coli (not resolved)
Description: Inhibition of BTK activity was evaluated using a radiometric protein kinase assay (33PanQinase® Activity Assay) to measure the activity of BTK (Bruton tyrosine kinase).
Kinase assays were performed in 96-well ScintiPlates™ from Perkin Elmer (Boston, MA, USA) in a 50 μL reaction volume. The reaction cocktail was pipetted in four steps in the following order: 10 μL of non-radioactive ATP solution (in H2O); 25 μL of assay buffer/[γ-^33P]-ATP mixture; 5 μL of compound test sample in 10% DMSO; 10 μL of enzyme/substrate mixture.
BTK kinase was expressed in Sf9 insect cells or in E. coli as recombinant GST-fusion proteins or His-tagged proteins, either as full-length or enzymatically active fragments from human cDNAs, and purified by either GSH-affinity chromatography or immobilized metal. Purity was examined by SDS-PAGE/Coomassie staining, and identity confirmed by mass spectroscopy.
The reaction cocktails were incubated at 30° C. for 60 minutes. The reaction was stopped with 50 μL of 2% (v/v) H3PO4, plates were aspirated and washed two times with 200 μL 0.9% (w/v) NaCl. Incorporation of ^33Pi (counting of “cpm”) was determined with a microplate scintillation counter (Microbeta, Wallac).
The median value of the counts in wells containing assay buffer without enzyme, and without test compound was defined as “low control.” This value reflects unspecific binding of radioactivity to the plate in the absence of a protein kinase but in the presence of the substrate. The median value of the counts in wells containing assay buffer without test compound was defined as the “high control,” i.e. full activity in the absence of any inhibitor. The difference between high and low control was taken as 100% activity. Residual activity (in %) was calculated using the following formula: Res. Activity (%)=100×[(cpm of compound-low control)/(high control-low control)].
The fitting method used was a least-squares fit.

[3] = Inhibition of BTK, radiometric 33PanQinase Activity Assay, 3 μM ATP, 10 concentrations in singlicate, top 10 μM, read-out: 33PanQinase ® Radiometric IC50

T1 sequence (Q06187 whole entry): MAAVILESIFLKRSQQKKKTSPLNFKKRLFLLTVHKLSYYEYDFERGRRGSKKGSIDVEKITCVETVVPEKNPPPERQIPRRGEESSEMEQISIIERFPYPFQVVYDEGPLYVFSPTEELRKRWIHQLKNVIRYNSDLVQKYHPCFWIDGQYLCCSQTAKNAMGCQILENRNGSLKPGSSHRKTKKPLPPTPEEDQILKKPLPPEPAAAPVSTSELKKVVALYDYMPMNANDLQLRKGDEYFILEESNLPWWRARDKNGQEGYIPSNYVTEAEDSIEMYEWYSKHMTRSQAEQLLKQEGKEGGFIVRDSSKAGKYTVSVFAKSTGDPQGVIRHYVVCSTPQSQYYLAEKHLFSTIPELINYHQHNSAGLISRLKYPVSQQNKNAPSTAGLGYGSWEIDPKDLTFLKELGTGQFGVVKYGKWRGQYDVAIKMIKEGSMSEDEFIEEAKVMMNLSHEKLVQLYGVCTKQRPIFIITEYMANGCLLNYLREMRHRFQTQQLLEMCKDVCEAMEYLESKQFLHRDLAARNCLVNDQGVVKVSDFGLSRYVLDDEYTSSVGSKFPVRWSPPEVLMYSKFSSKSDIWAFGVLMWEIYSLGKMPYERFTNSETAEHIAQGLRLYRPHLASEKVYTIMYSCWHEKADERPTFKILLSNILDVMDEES
CXCR4, sequence (P61073 whole entry): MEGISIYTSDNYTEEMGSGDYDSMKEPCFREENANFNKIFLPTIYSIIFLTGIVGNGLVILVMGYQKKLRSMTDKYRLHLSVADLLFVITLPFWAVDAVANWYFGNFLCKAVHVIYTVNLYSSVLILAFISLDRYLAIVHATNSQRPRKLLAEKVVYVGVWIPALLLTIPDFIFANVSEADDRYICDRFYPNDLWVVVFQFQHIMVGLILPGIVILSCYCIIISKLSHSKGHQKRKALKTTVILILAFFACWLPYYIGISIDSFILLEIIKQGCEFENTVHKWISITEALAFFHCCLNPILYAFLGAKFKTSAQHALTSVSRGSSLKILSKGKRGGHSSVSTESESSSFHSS

Structure (SMILES)	IC50 [2, 3] [nM]	further results
Cc1cccnc1[C@H]1CCC[C@@H](c2ncccc2C)N1CCN1CCN(C(=O)c2ccc(-c3cc4c(-c5cccc(NC(=O)C(C)(C)C)c5C)ncnc4[nH]3)cc2)CC1 [Compound I-70]	100 to 1000	–
Cc1cccnc1[C@H]1CCC[C@@H](c2ncccc2C)N1CCN1CCN(C(=O)[C@]23C[C@](c4cc5c(-c6cccc(NC(=O)c7ccccc7)c6C)ncnc5[nH]4)(C2)C3)CC1 [Compound I-71]	1000 to 2500	–
Cc1cccnc1C1CCCCN1CCN1CCN(C(=O)c2ccc(-c3cc4c(-c5cccc(NC(=O)c6ccccc6)c5C)ncnc4[nH]3)cc2)CC1 (centres unmarked) [Compound I-73]	100 to 1000	–
Cc1cccnc1[C@H]1CCC[C@@H](c2ncccc2C)N1CCNC(=O)c1cc2c(-c3cccc(NC(=O)c4ccccc4)c3C)ncnc2[nH]1 [Compound I-74]	–	IC50 [2]: > 2500 nM
Cc1cccnc1[C@H]1CCC[C@@H](c2ncccc2C)N1CCCNC(=O)c1cc2c(-c3cccc(NC(=O)c4ccccc4)c3C)ncnc2[nH]1 [Compound I-75]	> 2500	–
Cc1cccnc1[C@H]1CCC[C@@H](c2ncccc2C)N1CCCCNC(=O)c1cc2c(-c3cccc(NC(=O)c4ccccc4)c3C)ncnc2[nH]1 [Compound I-76]	> 2500	–
Cc1cccnc1[C@H]1CCC[C@@H](c2ncccc2C)N1CCNC1CN(C(=O)c2cc3c(-c4cccc(NC(=O)c5ccccc5)c4C)ncnc3[nH]2)C1 [Compound I-77]	> 2500	–
Cc1cccnc1[C@H]1CCC[C@@H](c2ncccc2C)N1CCCNC1CN(C(=O)c2cc3c(-c4cccc(NC(=O)c5ccccc5)c4C)ncnc3[nH]2)C1 [Compound I-78]	> 2500	–
Cc1cccnc1[C@H]1CCC[C@@H](c2ncccc2C)N1CCCCNC1CN(C(=O)c2cc3c(-c4cccc(NC(=O)c5ccccc5)c4C)ncnc3[nH]2)C1 [Compound I-79]	> 2500	–
Cc1cc(-c2ncnc3[nH]c(C(=O)NCCN4[C@@H](c5ncccc5C)CCC[C@H]4c4ncccc4C)cc23)ccc1CNC(=O)c1ccc(F)cc1 [Compound I-80]	100 to 1000	–
Cc1cc(-c2ncnc3[nH]c(C(=O)NCCN4[C@@H](c5ncccc5C)CCC[C@H]4c4ncccc4C)cc23)ccc1CNC(=O)c1cccc(F)c1 [Compound I-81]	100 to 1000	–
Cc1cc(-c2ncnc3[nH]c(C(=O)NCCCN4[C@@H](c5ncccc5C)CCC[C@H]4c4ncccc4C)cc23)ccc1CNC(=O)c1cccc(F)c1 [Compound I-82]	100 to 1000	–
Cc1cc(-c2ncnc3[nH]c(C(=O)NCCCCN4[C@@H](c5ncccc5C)CCC[C@H]4c4ncccc4C)cc23)ccc1CNC(=O)c1cccc(F)c1 [Compound I-83]	100 to 1000	–
Cc1cc(-c2ncnc3[nH]c(C(=O)NCCN4[C@@H](c5ncccc5C)CCC[C@H]4c4ncccc4C)cc23)ccc1CNC(=O)c1cc(F)cc(F)c1 [Compound I-84]	100 to 1000	–
Cc1cc(-c2ncnc3[nH]c(C(=O)NCCCN4[C@@H](c5ncccc5C)CCC[C@H]4c4ncccc4C)cc23)ccc1CNC(=O)c1cc(F)cc(F)c1 [Compound I-85]	100 to 1000	–
Cc1cc(-c2ncnc3[nH]c(C(=O)NCCCCN4[C@@H](c5ncccc5C)CCC[C@H]4c4ncccc4C)cc23)ccc1CNC(=O)c1cc(F)cc(F)c1 [Compound I-86]	100 to 1000	–
Cc1cccnc1[C@H]1CCC[C@@H](c2ncccc2C)N1CCNC(=O)c1cc2c(-c3cccc(NC(=O)c4ccc(F)cc4)c3C)ncnc2[nH]1 [Compound I-87]	> 2500	–
Cc1cccnc1[C@H]1CCC[C@@H](c2ncccc2C)N1CCCNC(=O)c1cc2c(-c3cccc(NC(=O)c4ccc(F)cc4)c3C)ncnc2[nH]1 [Compound I-88]	> 2500	–
Cc1cccnc1[C@H]1CCC[C@@H](c2ncccc2C)N1CCCCNC(=O)c1cc2c(-c3cccc(NC(=O)c4ccc(F)cc4)c3C)ncnc2[nH]1 [Compound I-89]	> 2500	–
Cc1cccnc1[C@H]1CCC[C@@H](c2ncccc2C)N1CCNC1CN(C(=O)c2cc3c(-c4cccc(NC(=O)c5ccc(F)cc5)c4C)ncnc3[nH]2)C1 [Compound I-90]	> 2500	–
Cc1cccnc1[C@H]1CCC[C@@H](c2ncccc2C)N1CCCNC1CN(C(=O)c2cc3c(-c4cccc(NC(=O)c5ccc(F)cc5)c4C)ncnc3[nH]2)C1 [Compound I-91]	> 2500	–
Cc1cccnc1[C@H]1CCC[C@@H](c2ncccc2C)N1CCCCNC1CN(C(=O)c2cc3c(-c4cccc(NC(=O)c5ccc(F)cc5)c4C)ncnc3[nH]2)C1 [Compound I-92]	1000 to 2500	–

Now from value to compound, other results behind:

IC50 [2, 3] [nM]	Structure (SMILES)	further results
1 to 100	Cc1cc(-c2ccnc(Nc3cnn(CCCCN4[C@@H](c5ncccc5C)CCC[C@H]4c4ncccc4C)c3)n2)ccc1CNC(=O)N1CC(OC(C)C)C1 [Compound I-29]	IC50 [1]: > 2500 nM
1 to 100	Cc1cc(-c2ncnc3[nH]c(C(=O)NCCCCN4[C@@H](c5ncccc5C)CCC[C@H]4c4ncccc4C)cc23)ccc1CNC(=O)c1ccccc1 [Compound I-47]	–
1 to 100	CCc1ccc(C(=O)NCc2ccc(-c3ncnc4[nH]c(C(=O)NCCCCN5[C@@H](c6ncccc6C)CCC[C@H]5c5ncccc5C)cc34)cc2C)cc1 [Compound I-48]	–
1 to 100	Cc1cc(-c2ncnc3[nH]c(C(=O)NCCCCN4[C@@H](c5ncccc5C)CCC[C@H]4c4ncccc4C)cc23)ccc1CNC(=O)c1ccc(F)cc1 [Compound I-49]	–
1 to 100	Cc1cc(-c2ncnc3[nH]c(C(=O)NCCCN4[C@@H](c5ncccc5C)CCC[C@H]4c4ncccc4C)cc23)ccc1CNC(=O)c1ccccc1 [Compound I-50]	–
1 to 100	CCc1ccc(C(=O)NCc2ccc(-c3ncnc4[nH]c(C(=O)NCCCN5[C@@H](c6ncccc6C)CCC[C@H]5c5ncccc5C)cc34)cc2C)cc1 [Compound I-51]	–
1 to 100	Cc1cc(-c2ncnc3[nH]c(C(=O)NCCCN4[C@@H](c5ncccc5C)CCC[C@H]4c4ncccc4C)cc23)ccc1CNC(=O)c1ccc(F)cc1 [Compound I-52]	–
1 to 100	CCOC1CN(C(=O)NCc2ccc(-c3ccnc(Nc4cnn(CCN5[C@@H](c6ncccc6C)CCC[C@H]5c5ncccc5C)c4)n3)cc2C)C1 [Compound I-53]	–
1 to 100	COC1CN(C(=O)NCc2ccc(-c3ccnc(Nc4cnn(CCCN5[C@@H](c6ncccc6C)CCC[C@H]5c5ncccc5C)c4)n3)cc2C)C1 [Compound I-54]	–
1 to 100	CCOC1CN(C(=O)NCc2ccc(-c3ccnc(Nc4cnn(CCCN5[C@@H](c6ncccc6C)CCC[C@H]5c5ncccc5C)c4)n3)cc2C)C1 [Compound I-55]	–
1 to 100	Cc1cc(-c2ccnc(Nc3cnn(CCCN4[C@@H](c5ncccc5C)CCC[C@H]4c4ncccc4C)c3)n2)ccc1CNC(=O)N1CC(OC(C)(C)C)C1 [Compound I-56]	–
1 to 100	Cc1cc(-c2ccnc(Nc3cnn(CCCN4[C@@H](c5ncccc5C)CCC[C@H]4c4ncccc4C)c3)n2)ccc1CNC(=O)N1CC(OC(F)(F)F)C1 [Compound I-57]	–
1 to 100	Cc1ccc(Oc2ccc(C(=O)c3c[nH]c4ncnc(N[C@@H]5CC[C@@H](C(=O)NCCCCN6[C@@H](c7ncccc7C)CCC[C@H]6c6ncccc6C)OC5)c34)c(Cl)c2)cc1 [Compound I-58]	–
1 to 100	Cc1cccc(Oc2ccc(C(=O)c3c[nH]c4ncnc(N[C@@H]5CC[C@@H](C(=O)NCCCCN6[C@@H](c7ncccc7C)CCC[C@H]6c6ncccc6C)OC5)c34)c(Cl)c2)c1 [Compound I-59]	–
1 to 100	Cc1ccccc1Oc1ccc(C(=O)c2c[nH]c3ncnc(N[C@@H]4CC[C@@H](C(=O)NCCCCN5[C@@H](c6ncccc6C)CCC[C@H]5c5ncccc5C)OC4)c23)c(Cl)c1 [Compound I-60]	–
1 to 100	Cc1cccnc1[C@H]1CCC[C@@H](c2ncccc2C)N1CCN1CCN(C(=O)c2ccc(-c3cc4c(-c5cccc(NC(=O)c6ccc(F)cc6)c5C)ncnc4[nH]3)cc2)CC1 [Compound I-67]	–
1 to 100	Cc1cccnc1[C@H]1CCC[C@@H](c2ncccc2C)N1CCN1CCN(C(=O)c2ccc(-c3cc4c(-c5cccc(NC(=O)c6ccccc6F)c5C)ncnc4[nH]3)cc2)CC1 [Compound I-68]	–
1 to 100	CC(=O)Nc1cccc(-c2ncnc3[nH]c(-c4ccc(C(=O)N5CCN(CCN6[C@@H](c7ncccc7C)CCC[C@H]6c6ncccc6C)CC5)cc4)cc23)c1C [Compound I-69]	–
